Experimental data reported in US20260256789A1, “METHODS FOR TREATMENT OF CANCER” (Frontier Medicines Corporation, priority 2022, published 2026).

Target: T1, KRAS G12C (GMPPNP-loaded) and cRAF Ras-binding domain (Homo sapiens, UniProt P01116, C118S/C51S/C80L/G12C)
T1 construct: truncated version comprising amino acids 1-169
Assay: Inhibition of KRAS G12C and cRAF binding (AlphaScreen)
Details: KRAS G12C preloaded with GTP analogue GMPPNP, 2 hours preincubation
Procedure, shortened: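 AlphaScreen used biotin-AviTag KRAS G12C (Cys-light, aa 1-169; 0.5 nM), GMPPNP-loaded, preincubated 2 h with compound (top 50 μM, 1:3, 10 points, 2% DMSO) in pH 7.4 Hepes buffer with 10 μM GMPPNP. GST-cRAF RBD (aa 50-131; 0.75 nM) plus beads were then added for 60-90 min at room temperature, and IC50 came from a 4-parameter fit.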

T1 sequence (P01116 1-169 isoform P01116-2 G12C/C51S/C80L/C118S): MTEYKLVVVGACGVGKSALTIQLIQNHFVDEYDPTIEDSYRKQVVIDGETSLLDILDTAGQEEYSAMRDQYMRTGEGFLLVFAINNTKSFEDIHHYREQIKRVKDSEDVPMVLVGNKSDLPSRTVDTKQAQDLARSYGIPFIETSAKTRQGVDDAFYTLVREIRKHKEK

| Compound | IC50 |
| --- | --- |
| CN(CC1CN(C(=O)/C=C/CN2CCOCC2)C1)c1nc(OC[C@@]23CCCN2C[C@H](F)C3)nc2c(F)c(-c3nc(N)cc4cccc(Cl)c34)ncc12 [Example 84, (E)-1-(3-(((7-(3-amino-8-chloroisoquinolin-1-yl)-8-fluoro-2-(((2R,7aS)-2-fluorotetrahydro-1H-pyrrolizin-7a(5H)-yl)methoxy)pyrido[4,3-d]pyrimidin-4-yl)(methyl)amino)methyl)azetidin-1-yl)-4-morpholinobut-2-en-1-one] | 10 to 100 nM |
| Cc1cc(N)nc(-c2ncc3c(N4CCN(C#N)[C@@H](CC#N)C4)nc(OC[C@@]45CCCN4C[C@H](F)C5)nc3c2F)c1C(F)(F)F [Example 13, (S)-4-(7-(6-amino-4-methyl-3-(trifluoromethyl)pyridin-2-yl)-8-fluoro-2-(((2R,7aS)-2-fluorohexahydro-1H-pyrrolizin-7a-yl)methoxy)pyrido[4,3-d]pyrimidin-4-yl)-2-(cyanomethyl)piperazine-1-carbonitrile] | 10 to 100 nM |
| C=CC(=O)N1CC[C@@H](N(C)c2nc(OC[C@@]34CCCN3C[C@H](F)C4)nc3c(F)c(-c4cc(O)c(C)cc4C4CC4)ncc23)C1 [Example 228] | ≥ 500 nM |
| Cc1noc(/C=C/C(=O)N2CC[C@@H](N(C)c3nc(OC[C@@]45CCCN4C[C@H](F)C5)nc4c(F)c(-c5nc(N)cc(C)c5C5CC5)ncc34)C2)n1 [Example 11, (E)-1-((R)-3-((7-(6-amino-3-cyclopropyl-4-methylpyridin-2-yl)-8-fluoro-2-(((2R,7aS)-2-fluorotetrahydro-1H-pyrrolizin-7a(5H)-yl)methoxy)pyrido[4,3-d]pyrimidin-4-yl)(methyl)amino)pyrrolidin-1-yl)-3-(3-methyl-1,2,4-oxadiazol-5-yl)prop-2-en-1-one] | < 10 nM |
| C=CC(=O)N1CC(CN(C)c2nc(OC[C@@]34CCCN3C[C@H](F)C4)nc3c2C[C@@H](C)[C@H](c2nc(N)cc(C)c2C(F)(F)F)C3)C1 (single isomer, unassigned) [Example 58] | 100 to 500 nM |
| C=CC(=O)N1CC(CN(C)c2nc(OC[C@@]34CCCN3C[C@H](F)C4)nc3c2C[C@H](C)[C@@H](c2nc(N)cc(C)c2C(F)(F)F)C3)C1 [Example 137, 1-(3-((((6S,7S)-7-(6-amino-4-methyl-3-(trifluoromethyl)pyridin-2-yl)-2-(((2R,7aS)-2-fluorotetrahydro-1H-pyrrolizin-7a(5H)-yl)methoxy)-6-methyl-5,6,7,8-tetrahydroquinazolin-4-yl)(methyl)amino)methyl)azetidin-1-yl)prop-2-en-1-one] | ≥ 500 nM |
| C=CC(=O)N1CC[C@@H](N(C)c2nc(OC[C@@]34CCCN3C[C@H](F)C4)nc3c2C[C@H](C)[C@@H](c2nc(N)cc(C)c2C(F)(F)F)C3)C1 [Example 145, 1-((R)-3-(((6S,7S)-7-(6-amino-4-methyl-3-(trifluoromethyl)pyridin-2-yl)-2-(((2R,7aS)-2-fluorotetrahydro-1H-pyrrolizin-7a(5H)-yl)methoxy)-6-methyl-5,6,7,8-tetrahydroquinazolin-4-yl)(methyl)amino)pyrrolidin-1-yl)prop-2-en-1-one] | ≥ 500 nM |
| C=CC(=O)N1CC[C@@H](N(C)c2nc(OC[C@@]34CCCN3C[C@H](F)C4)nc3c(F)c(-c4c[nH]nc4C(F)(F)F)ncc23)C1 [Example 196] | ≥ 500 nM |
| C=CC(=O)N1CC[C@@H](N(C)c2nc(OC[C@@]34CCCN3C[C@H](F)C4)nc3c(F)c(-c4cc(O)cc(Cl)c4C4CC4)ncc23)C1 [Example 12, 1-((R)-3-((7-(3-chloro-2-cyclopropyl-5-hydroxyphenyl)-8-fluoro-2-(((2R,7aS)-2-fluorotetrahydro-1H-pyrrolizin-7a(5H)-yl)methoxy)pyrido[4,3-d]pyrimidin-4-yl)(methyl)amino)pyrrolidin-1-yl)prop-2-en-1-one] | < 10 nM |
| C=CC(=O)N1CC[C@@H](N(C)c2nc(OC[C@@]34CCCN3C[C@H](F)C4)nc3c(F)c(-c4ccc(F)c(F)c4C4CC4)ncc23)C1 [Example 202] | ≥ 500 nM |
| C=CC(=O)N1CC[C@@H](N(C)c2nc(OCC34CCCN3CCC4)nc3c2CC(C)C(c2nc(N)cc(C)c2C(F)(F)F)C3)C1 (stereo partly drawn) [Example 98] | 100 to 500 nM |
| CN(C)CC#CC(=O)N1CC[C@@H](N(C)c2nc(OC[C@@]34CCCN3C[C@H](F)C4)nc3c(F)c(-c4nc(N)cc5cccc(Cl)c45)ncc23)C1 [Example 38, 1-((R)-3-((7-(3-amino-8-chloroisoquinolin-1-yl)-8-fluoro-2-(((2R,7aS)-2-fluorohexahydro-1H-pyrrolizin-7a-yl)methoxy)pyrido[4,3-d]pyrimidin-4-yl)(methyl)amino)pyrrolidin-1-yl)-4-(dimethylamino)but-2-yn-1-one] | < 10 nM |
| Cc1cc(N)nc([C@H]2Cc3nc(OC[C@@]45CCCN4C[C@H](F)C5)nc(N(C)CC4CN(C(=O)/C=C/c5nc(C(C)(C)O)no5)C4)c3C[C@@H]2C)c1C(F)(F)F (single isomer, unassigned) [Example 155] | ≥ 500 nM |
| Cc1nsc(/C=C/C(=O)N2CC[C@@H](N(C)c3nc(OC[C@@]45CCCN4C[C@H](F)C5)nc4c3C[C@@H](C)[C@H](c3nc(N)cc(C)c3C(F)(F)F)C4)C2)n1 [Example 158, (E)-1-((R)-3-(((6R,7R)-7-(6-amino-4-methyl-3-(trifluoromethyl)pyridin-2-yl)-2-(((2R,7aS)-2-fluorotetrahydro-1H-pyrrolizin-7a(5H)-yl)methoxy)-6-methyl-5,6,7,8-tetrahydroquinazolin-4-yl)(methyl)amino)pyrrolidin-1-yl)-3-(3-methyl-1,2,4-thiadiazol-5-yl)prop-2-en-1-one] | 10 to 100 nM |
| Cc1cc(N)nc(-c2ncc3c(N(C)[C@@H]4CCN(C(=O)/C=C/[C@H]5CCN5C)C4)nc(OC[C@@]45CCCN4C[C@H](F)C5)nc3c2F)c1C(F)(F)F (single isomer, unassigned) [Example 26] | < 10 nM |
| C#Cc1cccc2[nH]nc(-c3ncc4c(N(C)[C@@H]5CCN(C(=O)C=C)C5)nc(OC[C@@]56CCCN5C[C@H](F)C6)nc4c3F)c12 [Example 216] | ≥ 500 nM |
| CN(c1nc(OC[C@@]23CCCN2C[C@H](F)C3)nc2c(F)c(-c3cccc(Cl)c3C3CC3)ncc12)[C@@H]1CCN(C(=O)C#CCN2CC3CCC(C2)O3)C1 [Example 257] | 10 to 100 nM |

| Compound | IC50 |
| --- | --- |
| C=CC(=O)N1CC[C@@H](N(C)c2nc(OC[C@@]34CCCN3C[C@H](F)C4)nc3c(F)c(-c4ccccc4OC(F)F)ncc23)C1 [Example 182] | ≥ 500 nM |
| C=CC(=O)N1CC[C@@H](N(C)c2nc(OC[C@@]34CCCN3C[C@H](F)C4)nc3c(F)c(-c4cccn5nccc45)ncc23)C1 [Example 234] | ≥ 500 nM |
| CN(c1nc(OC[C@@]23CCCN2C[C@H](F)C3)nc2c(F)c(-c3cccc(Cl)c3C3CC3)ncc12)[C@@H]1CCN(C(=O)/C=C/CN2C[C@@H]3C[C@H]2CO3)C1 [Example 231] | 10 to 100 nM |
| Cc1noc(/C=C/C(=O)N2CC[C@@H](N(C)c3nc(OCC45CCCN4CCC5)nc4c3C[C@@H](C)[C@H](c3nc(N)cc(C)c3C(F)(F)F)C4)C2)n1 (single isomer, unassigned) [Compound 9] | 100 to 500 nM |
| C=CC(=O)N1CC[C@@H](N(C)c2nc(OC[C@@]34CCCN3C[C@H](F)C4)nc3c(F)c(-c4ccccc4C(F)F)ncc23)C1 [Example 181] | ≥ 500 nM |
| C=CC(=O)N1CC[C@H](O)[C@@H](N(C)c2nc(OC[C@@]34CCCN3C[C@H](F)C4)nc3c(F)c(-c4cccc(Cl)c4C4CC4)ncc23)C1 [Example 237] | ≥ 500 nM |
| C=CC(=O)N1CC[C@@H](N(C)c2nc(OC[C@@]34CCCN3C[C@H](F)C4)nc3c(F)c(-c4cccc(Cl)c4C(F)(F)F)ncc23)[C@H]1C (single isomer, unassigned) [Example 78] | 10 to 100 nM |
| C=CC(=O)N1CC[C@@H](N(C)c2nc(OC[C@@]34CCCN3C[C@H](F)C4)nc3c(F)c(-c4cccc(F)c4C4CC4)ncc23)C1 [Example 220] | ≥ 500 nM |
| CN1CC[C@@H]1/C=C/C(=O)N1CC[C@@H](N(C)c2nc(OC[C@@]34CCCN3C[C@H](F)C4)nc3c(F)c(-c4cc(O)cc(F)c4C4CC4)ncc23)C1 [Example 180] | < 10 nM |
| C=CC(=O)N1CC[C@@H](N(C)c2nc(OC[C@@]34CCCN3C[C@H](F)C4)nc3c(F)c(-c4cc(O)cc5nccnc45)ncc23)C1 [Example 192] | 100 to 500 nM |
| C=CC(=O)N1CC[C@@H](N(C)c2nc(OCC34CCCN3CCC4)nc3c2C[C@H](C)[C@@H](c2nc(N)cc(C)c2C(F)(F)F)C3)C1 (single isomer, unassigned) [Example 18] | 100 to 500 nM |
| Cc1cc(/C=C/C(=O)N2CC(CN(C)c3nc(OC[C@@]45CCCN4C[C@H](F)C5)nc4c(F)c(-c5cccc(Cl)c5C5CC5)ncc34)C2)nc(C)n1 [Example 200] | 100 to 500 nM |
| CN(CC1CN(C(=O)/C=C/c2nc(C(C)(C)O)no2)C1)c1nc(OC[C@@]23CCCN2C[C@H](F)C3)nc2c(F)c(-c3nc(N)cc4cccc(F)c34)ncc12 [Example 35, (E)-1-(3-(((7-(3-amino-8-fluoroisoquinolin-1-yl)-8-fluoro-2-(((2R,7aS)-2-fluorohexahydro-1H-pyrrolizin-7a-yl)methoxy)pyrido[4,3-d]pyrimidin-4-yl)(methyl)amino)methyl)azetidin-1-yl)-3-(3-(2-hydroxypropan-2-yl)-1,2,4-oxadiazol-5-yl)prop-2-en-1-one] | < 10 nM |
| Cc1cc(N)nc(-c2ncc3c(N(C)CC4CN(C(=O)/C=C/c5nc(C(C)C)no5)C4)nc(OC[C@@]45CCCN4C[C@H](F)C5)nc3c2F)c1C(F)(F)F [Example 154] | 10 to 100 nM |
| C=CC(=O)N1CC[C@@H](N(C)c2nc(OC[C@@]34CCCN3C[C@H](F)C4)nc3c(F)c(-c4cccn5cncc45)ncc23)C1 [Example 219] | ≥ 500 nM |
| CN(c1nc(OC[C@@]23CCCN2C[C@H](F)C3)nc2c(F)c(-c3cccc(Cl)c3C3CC3)ncc12)[C@@H]1CCN(C(=O)/C=C/CN2C3COCC2C3)C1 [Example 256] | 10 to 100 nM |
